Test [1] concerns the target T1, SN23-Syn4-Vp2 SNARE complex (Rattus norvegicus, UniProt O70377+P63045+Q08850).
T1 construct: Syn4 (amino acids 1–298); SNAP-23 (amino acids 1–210); full-length VAMP2 (VpF, amino acids 1–116); GST (N, cleaved yes); made in house; host or cells: Escherichia coli Rosetta(DE3)pLysS
As to the kind of experiment: SNARE-driven membrane fusion (total lipid mixing) assay with proteoliposomes. To be noted: for inhibition of membrane fusion (lipid mixing): inhibitor applied to T-vesicles, T:V 9:1, 37°C, NBD dequenching, Vp2S/Vp8S at 10 µM, three independent experiments (Figure 3B-D); for inhibition of membrane fusion, peptide added after preincubation: peptide added after preincubation of T- and V-liposomes at 4°C overnight (partially zippered SNAREs) (Figure 4A); for inhibition of membrane fusion, peptide added before preincubation: peptide added before preincubation of T- and V-liposomes at 4°C overnight (Figure 4A). In kind it is biochemical. From the text:
Total RNA was obtained from RBL-2H3 cells using TRIzol® Reagent (#15596026, Invitrogen, Carlsbad, CA, USA) and served as a template for cDNA synthesis with M-MLV reverse transcriptase (M1705, Promega, Madison, WI, USA) according to the manufacturer’s protocol. The cDNAs amplified for rat Syn4, SNAP-23, VAMP2, VAMP4, VAMP7, and VAMP8 using each primer pair ([4]), were cloned into the pGEX-4T 1 vector. The mast cell SNARE proteins [Syn4 (amino acids 1–298), SNAP-23 (amino acids 1–210), full-length VAMP2 (VpF, amino acids 1–116), VAMP4 (amino acids 1–141), and VAMP8 (amino acids 1–100)] were expressed in Escherichia coli Rosetta(DE3)pLysS (#70956, Novagen, Darmstadt, Germany) and purified as glutathione-S-transferase-tagged fusion proteins as reported previously ([8]).
To prepare the unilamellar liposomes, a 50-mM lipid mixture of palmitoyl-2-oleoylphosphatidylcholine (POPC) (#850457, Avanti Polar Lipids, Alabaster, AL, USA):1,2-dioleoyl-phosphatidylserine (DOPS) (#840035, Avanti Polar Lipids) at 65:35 mol% was dried in a glass tube under a gentle stream of nitrogen gas and then exposed to a vacuum overnight. The resultant lipid film was resuspended in dialysis buffer (25 mM HEPES and 100 mM KCl, pH 7.4) by vortexing, followed by an extrusion step with polycarbonate membrane filters having a pore size of 100 nm (#610005, Avanti Polar Lipids). To prepare proteoliposomes, binary T-SNAREs, which were pre-formed by mixing Syn4 and SNAP-23 at room temperature for 60 min, were incubated with 50 mM unilamellar liposomes for 15 min at the same temperature, resulting in a 50:1 lipid/protein molar ratio ([9]).
For the preparation of V-SNARE proteoliposomes, a 10-mM premixed lipid solution [POPC:DOPS:N-(7-nitro-2-1,3-benzoxadiazol-4-yl (NBD))-phosphatidylserine (#810198, Avanti Polar Lipids):[…] (#810150, Avanti Polar Lipids) = 62:35:1.5:1.5 (molar ratio)] was used for the preparation of fluorescent liposomes in the same manner as above. The prepared liposomes were then mixed with VAMP2 for 15 min at room temperature. The liposome/protein mixture was diluted twice to bring the concentration of n-octyl glucoside (O8001, Sigma-Aldrich) below the critical micelle concentration. After overnight dialysis against 1L dialysis buffer at 4°C to remove the detergent, SM-2 bio-beads (#1523920, Bio-Rad Laboratories, Hercules, CA, USA) were added to the sample to remove any remaining n-octyl glucoside. The solution was then centrifuged at 10,000 × g to remove the protein/lipid aggregates, and the final lipid concentrations of both the T- and V-liposomes were adjusted to 1 mM with a lipid-to-protein ratio of 50:1.
A total lipid mixing assay using the T- and V-liposomes was performed as described previously with minor modifications ([8]). […] The fusion was monitored using the dequenching of NBD fluorescence signal (excitation 465 nm/emission 530 nm). After at least 80 min of fusion, the maximum NBD signal was obtained by adding 0.1% Triton X-100™. All the lipid-mixing experiments were performed at 37°C.

The test system of test [2] is complexes containing both Syn4 and SN23. The experiment in a line: Co-immunoprecipitation of SNARE complexes in activated RBL-2H3 cells, anti-SNAP-23 blot. In kind it is cell-based, rat. To be noted: peptides added to the medium after A23187 pretreatment; co-IP, blot anti-SNAP-23 (Figure 4C). The method, then:
Lysates of RBL-2H3 cells (0.5–1 × 10^6 cells), which were obtained by the addition of 1 mL lysis buffer (50 mM Tris–HCl, 150 mM NaCl, 1% Triton X-100™, 1 mM EDTA, pH 7.5) supplemented with a protease inhibitor cocktail (Calbiochem®, Merck Millipore, Billerica, MA, USA), were centrifuged at 13,000 g at 4°C to remove cell debris and precleared with 100 µL protein G Sepharose® (GE Healthcare) for 2 h at 4°C. The precleared lysates were incubated with antibodies against SNARE proteins (Syn4, SNAP-23, VAMP2, and VAMP8) for 2 h at 4°C for binding, and then the antibody–antigen complexes were precipitated by incubation with a protein G slurry overnight with constant shaking. After an extensive washing step with lysis buffer, an immunoblotting analysis was performed for the precipitates. The immunoprecipitated proteins and cell lysates were electrophoresed on 12% sodium dodecyl sulfate-polyacrylamide gel electrophoresis gels and then transferred to nitrocellulose blotting membranes (GE Healthcare). After blocking the membranes in TBST (10 mM Tris–HCl, 150 mM NaCl, and 0.05% Tween® 20, pH 8) containing 0.5% BSA and 5% skim milk for 1 h at room temperature, primary anti-SNAP-23 antibody (1:1,000 dilution) in TBST supplemented with 1% BSA and 0.01% sodium azide was added and incubated at 4°C overnight. […]

The subject of test [3] is RBL-2H3 mast cells. As to the kind of experiment: Degranulation assay, histamine release (enzyme immunoassay). In kind it is cell-based, rat. Conditions: for inhibition of histamine release: PTD-conjugated peptide without SLO (LY294002 as positive control), DNP-IgE sensitized, DNP-BSA stimulation, no A23187 pretreatment, three independent experiments (Figure 2C); for inhibition of histamine release after A23187 pretreatment: cells pretreated with A23187, sensitized with DNP-IgE, then PTD-conjugated peptide (Figure 4B).

T1 sequence (Q08850 whole entry, the tested form may be a part): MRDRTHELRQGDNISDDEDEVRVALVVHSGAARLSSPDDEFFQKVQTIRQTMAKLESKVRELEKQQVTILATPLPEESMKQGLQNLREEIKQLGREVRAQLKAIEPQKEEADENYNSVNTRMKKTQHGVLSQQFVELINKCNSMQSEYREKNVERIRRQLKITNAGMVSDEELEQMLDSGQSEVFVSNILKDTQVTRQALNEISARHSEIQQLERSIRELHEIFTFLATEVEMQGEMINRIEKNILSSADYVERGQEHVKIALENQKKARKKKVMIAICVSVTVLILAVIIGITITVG
T1 sequence (O70377 whole entry, the tested form may be a part): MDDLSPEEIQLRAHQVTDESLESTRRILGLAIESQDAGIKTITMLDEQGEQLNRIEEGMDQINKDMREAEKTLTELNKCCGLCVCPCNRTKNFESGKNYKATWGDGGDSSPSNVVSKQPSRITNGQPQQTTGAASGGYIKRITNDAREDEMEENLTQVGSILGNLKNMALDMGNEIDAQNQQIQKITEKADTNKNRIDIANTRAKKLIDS
T1 sequence (P63045 whole entry, the tested form may be a part): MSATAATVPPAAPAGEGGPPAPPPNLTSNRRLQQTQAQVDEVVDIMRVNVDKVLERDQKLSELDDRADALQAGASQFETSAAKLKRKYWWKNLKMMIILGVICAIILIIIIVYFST

Consider “EDEMEENLTQVGSILGN [SC23N, 17-mer peptide, N-terminal region of SNAP-23 SNARE motif SC23]”, for which, in test [1], the “inhibition of membrane fusion (lipid mixing)” value was “inhibited membrane fusion by both the SN23-Syn4-Vp2 and SN23-Syn4-Vp8 complexes”; the “inhibition of membrane fusion, peptide added after preincubation” value is “inhibitory activities significantly diminished”; the “inhibition of membrane fusion, peptide added before preincubation” value was “inhibited the membrane fusion induced by both SN23-Syn4-Vp2 and SN23-Syn4-Vp8”. Besides, the “amount of complexes containing both Syn4 and SN23 (binary Syn4-SN23 and ternary complexes)” value in test [2] is “most dramatically reduced”.

As for “LQSEVEGVKNIMTQNVE [Vp8N, 17-mer peptide, N-terminal region of VAMP8 SNARE motif]”, in test [3], the “inhibition of histamine release” value is “almost equally inhibited the release of both β-hexosaminidase and histamine”; the “inhibition of histamine release after A23187 pretreatment” value was “inhibited both histamine and β-hexosaminidase release”.

With “SARHSEIQQLERTIREL [Syn4N, 17-mer peptide, N-terminal region of syntaxin 4 SNARE motif]”, in test [1], the “inhibition of membrane fusion (lipid mixing)” value was “inhibited membrane fusion by both the SN23-Syn4-Vp2 and SN23-Syn4-Vp8 complexes”; the “inhibition of membrane fusion, peptide added after preincubation” value is recorded as “inhibitory activities significantly diminished”; the “inhibition of membrane fusion, peptide added before preincubation” value was “inhibited the membrane fusion induced by both SN23-Syn4-Vp2 and SN23-Syn4-Vp8”. Also, in test [3], the “inhibition of histamine release” value is “almost equally inhibited the release of both β-hexosaminidase and histamine”; the “inhibition of histamine release after A23187 pretreatment” value was “inhibited both histamine and β-hexosaminidase release”. For the same sequence, the “amount of complexes containing both Syn4 and SN23 (binary Syn4-SN23 and ternary complexes)” value in test [2] was “most dramatically reduced”.

Source of the values: publication PMC5904360, “Soluble N-Ethylmaleimide-Sensitive Factor Attachment Protein Receptor-Derived Peptides for Regulation of Mast Cell Degranulation” (Frontiers in Immunology, 2018).
